The supplement of paper PMC10307832

Experiments:
Assay in all cases: relative viability (nuclei count vs DMSO), 5 days (fraction); higher = more cells survive
[1] = compound: O=C(CCCCCCC(=O)Nc1ccccc1)NO [Vorinostat] + CC(C)C[C@H](NC(=O)[C@H](Cc1ccccc1)NC(=O)c1cnccn1)B(O)O [Bortezomib] (partner 0.002 µM)
Summary of the method: (§1)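 A single step with final 0.05% Triton X-100, 1% formaldehyde and 1 ug/ml Hoechst fixed the cells and stained nuclei 5 days after treatment. Lung cancer cell lines in 1536-well plates had been treated by pin tool the day after seeding with one drug alone or a fixed anchor-drug dose plus five library-drug doses (not always all listed) in √10 steps, and nuclei were counted on 4× images. Relative viability is the ratio of nuclei in treated wells to nuclei in vehicle wells, taken as the median of duplicate plates.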

[2] = compound: O=C(CCCCCCC(=O)Nc1ccccc1)NO [Vorinostat] + CC1(C)CCC(c2ccc(Cl)cc2)=C(CN2CCN(c3ccc(C(=O)NS(=O)(=O)c4ccc(N[C@H](CCN5CCOCC5)CSc5ccccc5)c(S(=O)(=O)C(F)(F)F)c4)cc3)CC2)C1 [Navitoclax] (partner 0.5 µM)
Summary of the method: as §1

[3] = compound: O=C(CCCCCCC(=O)Nc1ccccc1)NO [Vorinostat] + Nc1ncn([C@H]2C[C@H](O)[C@@H](CO)O2)c(=O)n1 [Decitabine] (partner 2 µM)
Summary of the method: as §1

[4] = compound: O=C(CCCCCCC(=O)Nc1ccccc1)NO [Vorinostat] + Cc1nc(NC(=O)N2CCC[C@H]2C(N)=O)sc1-c1ccnc(C(C)(C)C(F)(F)F)c1 [Alpelisib] (partner 2 µM)
Summary of the method: as §1

Cell Line	relative viability ([1]; first compound 0.253 µM)	relative viability ([1]; first compound 0.8 µM)	relative viability ([1]; first compound 2.53 µM)	relative viability ([1]; first compound 8 µM)	relative viability ([2]; first compound 0.253 µM)	relative viability ([2]; first compound 0.8 µM)	relative viability ([2]; first compound 2.53 µM)	relative viability ([2]; first compound 8 µM)	relative viability ([3]; first compound 0.253 µM)	relative viability ([3]; first compound 0.8 µM)	relative viability ([3]; first compound 2.53 µM)	relative viability ([3]; first compound 8 µM)	relative viability ([4]; first compound 0.253 µM)	relative viability ([4]; first compound 0.8 µM)	relative viability ([4]; first compound 2.53 µM)	relative viability ([4]; first compound 8 µM)
H3255	0.778	0.622	0.456	0.154	0.595	0.598	0.2	0.0872	0.839	0.607	0.427	0.173	0.874	0.714	0.414	0.209
NCI-H838	1.22	0.864	0.275	0.134	1.34	1.15	0.395	0.195	0.542	0.597	0.325	0.198	1.23	1.1	0.605	0.185
EMC-BAC-2	1.22	1.02	0.405	0.167	1.21	1.13	0.692	0.131	0.958	0.716	0.373	0.168	0.88	0.745	0.409	0.113
NCI-H1793	–	–	–	–	0.534	0.521	0.186	0.118	0.596	0.504	0.38	0.165	0.905	0.96	0.519	0.251
NCI-H441	0.299	0.26	0.165	0.106	0.464	0.536	0.164	0.184	0.223	0.199	0.168	0.104	0.754	0.616	0.289	0.11
NCI-H3122	1.07	0.995	1.03	0.145	1.09	1.08	0.959	0.184	0.45	0.582	0.269	0.117	0.768	0.811	0.393	0.208
NCI-H1651	0.934	0.992	0.807	0.1	1.12	0.732	0.0917	0.0643	0.58	0.477	0.202	0.0686	1.04	0.713	0.119	0.0787
NCI-H1734	1.14	0.96	0.417	0.109	0.943	0.76	0.269	0.0823	0.548	0.444	0.31	0.0873	0.714	0.7	0.518	0.137
ABC-1	0.297	0.281	0.175	0.194	–	–	–	–	1.33	0.896	0.421	0.158	1.02	0.636	0.354	0.161
SK-LU-1	0.678	1.22	0.248	0.163	0.785	0.528	0.109	0.111	0.655	0.669	0.494	0.196	1.14	0.721	0.488	0.178
NCI-H322M	1.4	1.25	0.715	0.392	1.33	1.32	0.836	0.249	0.679	1.1	0.622	0.373	0.93	0.852	0.576	0.296
NCI-H1355	1.3	0.978	0.863	0.131	1.05	0.876	0.506	0.166	0.393	0.354	0.253	0.143	1.1	0.691	0.321	0.145
EPLC-272H	0.742	0.744	0.275	0.12	0.984	1	0.242	0.0967	0.309	0.338	0.189	0.152	0.928	0.893	0.396	0.175
A-427	0.991	1.04	0.723	0.21	1.06	0.906	0.812	0.171	0.551	0.557	0.434	0.166	1.1	1.1	0.889	0.146
BEN	0.941	0.479	0.201	0.0496	0.0469	0.0584	0.0602	0.0509	0.838	0.55	0.236	0.143	1.07	0.457	0.154	0.0775
LCLC-103H	1.16	0.893	0.391	0.238	–	–	–	–	0.715	0.766	0.329	0.363	1.23	0.97	0.58	0.184
EKVX	1.14	1.11	0.561	0.175	0.955	1.13	0.588	0.143	0.31	0.324	0.194	0.133	0.992	0.951	0.4	0.14
SW 900	–	–	–	–	–	–	–	–	0.34	0.351	0.23	0.159	–	–	–	–
NCI-H2342	–	–	–	–	–	–	–	–	0.58	0.715	0.529	0.391	–	–	–	–
LU99A	1.09	0.863	0.298	0.158	0.653	0.553	0.172	0.0974	0.949	0.702	0.389	0.156	0.517	0.395	0.178	0.126
SK-MES-1	–	–	–	–	1.51	1.18	0.494	0.162	0.362	0.364	0.212	0.163	0.948	0.904	0.437	0.144
NCI-H2023	1.16	0.657	0.223	0.07	1.08	0.91	0.449	0.0939	0.242	0.177	0.11	0.0687	0.623	0.509	0.292	0.0757
NCI-H596	0.942	0.693	0.663	0.258	0.943	0.942	0.279	0.145	1.07	0.902	0.68	0.36	0.871	0.482	0.278	0.248
NCI-H2009	1.32	0.567	0.233	0.126	1.16	1.16	0.722	0.141	0.416	0.354	0.273	0.0862	1.24	1	0.633	0.187

Cell Line	relative viability ([1]; first compound 0.253 µM)	relative viability ([1]; first compound 0.8 µM)	relative viability ([1]; first compound 2.53 µM)	relative viability ([1]; first compound 8 µM)	relative viability ([2]; first compound 0.253 µM)	relative viability ([2]; first compound 0.8 µM)	relative viability ([2]; first compound 2.53 µM)	relative viability ([2]; first compound 8 µM)	relative viability ([3]; first compound 0.253 µM)	relative viability ([3]; first compound 0.8 µM)	relative viability ([3]; first compound 2.53 µM)	relative viability ([3]; first compound 8 µM)	relative viability ([4]; first compound 0.253 µM)	relative viability ([4]; first compound 0.8 µM)	relative viability ([4]; first compound 2.53 µM)	relative viability ([4]; first compound 8 µM)
SW 1573	1.11	1.1	0.565	0.0796	1.12	0.891	0.349	0.0555	0.514	0.355	0.14	0.0457	1.03	0.901	0.587	0.147
NCI-H460	1.12	0.783	0.0198	0.0125	1.26	0.913	0.0765	0.0108	0.526	0.377	0.0496	0.0202	0.609	0.351	0.0248	0.0089
NCI-H1703	0.262	0.23	0.156	0.133	1.46	1.47	0.888	0.161	–	–	–	–	0.469	0.525	0.594	0.156
HCC-366	1.09	0.872	0.0664	0.0198	1.03	0.9	0.135	0.0208	0.383	0.244	0.0518	0.0306	0.456	0.36	0.0363	0.0122
HCC-15	1.15	0.973	0.518	0.13	0.82	0.594	0.324	0.0877	0.69	0.521	0.2	0.0924	0.93	0.864	0.468	0.0971
NCI-H520	0.605	0.164	0.13	0.107	1.17	0.845	0.256	0.162	0.581	0.474	0.297	0.157	1.02	0.588	0.487	0.139
COR-L23	0.985	0.683	0.131	0.0488	1.13	0.503	0.0887	0.0849	0.373	0.301	0.136	0.0929	0.834	0.372	0.0994	0.0715
CAL-12T	1.22	0.984	0.406	0.148	1.16	1.14	0.56	0.101	–	–	–	–	1.18	1.07	0.462	0.0781
NCI-H1975	0.438	0.198	0.0889	0.081	1.23	0.839	0.308	0.146	0.435	0.441	0.165	0.113	0.696	0.528	0.189	0.133
NCI-H1650	0.22	0.178	0.179	0.142	1.12	0.851	0.385	0.144	0.351	0.359	0.27	0.135	–	–	–	–
LC-2-ad	1.01	0.579	0.146	0.0588	0.539	0.277	0.102	0.113	0.839	0.69	0.469	0.227	0.816	0.644	0.0538	0.0781
NCI-H1563	0.977	0.778	0.579	0.503	–	–	–	–	–	–	–	–	0.93	0.8	0.642	0.555
NCI-H358	–	–	–	–	–	–	–	–	0.202	0.196	0.105	0.091	1.05	0.939	0.226	0.177
NCI-H522	–	–	–	–	–	–	–	–	0.632	0.657	0.531	0.259	–	–	–	–
NCI-H1944	–	–	–	–	1.07	0.945	0.731	0.226	0.397	0.364	0.259	0.141	0.849	0.566	0.409	0.151
NCI-H2228	0.979	0.389	0.188	0.097	0.953	0.809	0.473	0.132	–	–	–	–	0.945	0.461	0.184	0.113
NCI-H1395	–	–	–	–	1.14	1.26	0.693	0.387	0.857	0.69	0.565	0.343	1.48	1.09	0.57	0.373
NCI-H2170	–	–	–	–	0.706	0.481	0.216	0.172	0.415	0.407	0.321	0.129	0.823	0.69	0.235	0.141
LK-2	–	–	–	–	0.939	0.585	0.169	0.0764	0.267	0.201	0.089	0.064	1.07	0.847	0.234	0.125
NCI-H650	0.523	0.42	0.19	0.144	–	–	–	–	0.332	0.312	0.208	0.104	1.43	0.933	0.191	0.146
NCI-H661	0.839	0.933	0.439	0.185	–	–	–	–	0.575	0.468	0.335	0.316	1.23	1.09	0.491	0.171
A549	–	–	–	–	1.31	1.08	0.352	0.0351	0.224	0.302	0.256	0.0174	0.861	0.802	0.104	0.0282
ChaGo-K-1	0.954	0.932	0.467	0.282	1.01	0.92	0.582	0.276	0.508	0.516	0.389	0.202	–	–	–	–
